One block for each molecule: values may come before it.
What was measured:
VEGF = VEGF secretion from MM contact-activated BMSC; type: cell-based, human
Excerpt: (§1) p38 MAPK controls secretion of these factors in-vitro in systems representing the BM milieu.

multiple myeloma = assay: Treatment of a patient with multiple myeloma; type: in vivo, human
Excerpt: A patient is diagnosed with multiple myeloma. The patient presents with MM cells with rapid growth rates, which displace osteoblasts, and disrupting the balance of bone creation and destruction. A number of MM-related cytokines, such as IL-6, VEGF, IL-11, and PGE-2 are detectable. […] MM cell growth is inhibited and MM-related cytokine product is reduced.

HSP-27 [1] = assay: HSP-27 phosphorylation in MM cells (p38 MAPK activity); type: cell-based, human
Protocol: (§2) Total cell lysates are immunoprecipitated with anti-MAPKAPK-2 antibody and subjected to in vitro kinase assays using purified GST-Hsp27 as substrate. To examine Hsp27 phosphorylation in MM and transformed B cells, U266, IM9 and RPMI8226 cells are incubated either with DMSO or with 0.5 μM of a p38 MAPK inhibitor and cell lysates are immunoblotted with antibodies to phospho-Hsp27 (Ser 82) and Hsp27.
In additional experiments, the p38 MAPK inhibitors are tested for their ability to inhibit Hsp27 phosphorylation. U266, IM9 and RPMI8226 cells are incubated with 0.5 μM of the p38 MAPK inhibitor for 1 hour and Hsp27 proteins are immunoprecipitated with agarose-conjugated Hsp27 antibody, followed by immunoblotting with anti-phospho Hsp27 (Ser 78) antibody.
Specific antibodies to p38 MAP kinase are from Santa Cruz Biotechnology (Santa Cruz, Calif.). Antibodies to phospho-p38 MAP kinase (T180/Y182) and phospho-Hsp27 (S82) are from Cell Signaling (Beverly, Mass.). Antibodies to Hsp27 and phospho-Hsp27 (S78) are from Upstate Biotechnology (Lake Placid, N.Y.). Anti-MAPKAPK-2 is from StressGen (San Diego, Calif.) while anti-GAPDH is from Biogenesis Ltd. (Poole, UK).

IL-1β = assay: LPS-induced IL-1β release in human whole blood; type: cell-based; conditions: human whole blood (undiluted)
Excerpt: IL-1β illustrates the importance of amplification loops in myeloma-induced cytokine stimulation. IL-1, plays a well-documented role in the induction of multiple cytokines in a “cytokine network” of feedback loops, including strong induction of IL-6. The ability of IL-1 to increase mRNA expression and induce secretion of the MM-relevant cytokines from MM/BMSC cultures is evidence of this role.

MAPKAPK-2 = MAPKAPK-2 in vitro kinase assay with GST-Hsp27 substrate; type: cell-based, human
Protocol: as §2

IL-11 [2] = assay: IL-1 and TGFβ induction of IL-11 in BMSC cultures; type: cell-based, human; conditions: 100 nM
Excerpt: as §1

IL-11 [3] = assay: IL-1 and TGFβ induction of IL-11 in MM/BMSC cultures; type: cell-based, human; conditions: 100 nM
Excerpt: as §1

HSP-27 [4] = assay: HSP-27 phosphorylation in BMSC; type: cell-based, human
BMSC = BMSC viability, MTS assay; type: cell-based, human; conditions: tested up to 50-fold excess of active concentration
Protocol: Neither p38 MAPK inhibition nor high concentrations of p38 MAPK inhibitor (tested up to 50-fold excess of active concentration) affected BMSC viability (FIG. 4). Viability was measured using a standard enzymatic assay of respiratory activity, MTS (3-(4,5-dimethylthiazol-2-yl)-5-(3-carboxymethoxyphenyl)-2-(4-sulfophenyl)-2H-tetrazolium). Results obtained with the p38 MAPK inhibitor are in agreement with published results using a different p38α MAPK inhibitor.

[5] = system: human myeloma (RPMI8266) tumor; assay: Beige-nude-xid mouse xenograft plasmacytoma model; type: in vivo
Excerpt: Human-multiple myeloma (MM) is an incurable neoplasm of terminally differentiated B cells and MM disease progression is affected by immunoregulatory elements such as IL-6 and other cytokines. […]

TNF-α = assay: LPS-induced TNF-α secretion in whole blood; type: cell-based, human
Protocol: Other in vitro assays can assess the production of TNF-α as a correlation to p38 MAP kinase activity. One such example is a Human Whole Blood Assay. In this assay, venous blood is collected from, e.g., healthy male volunteers into a heparinized syringe and is used within 2 hours of collection. Test compounds are dissolved in 100% DMSO and 1 μl aliquots of drug concentrations ranging from 0 to 1 mM are dispensed into quadruplicate wells of a 24-well microtiter plate (Nunclon Delta SI, Applied Scientific Co., San Francisco, Calif.). Whole blood is added at a volume of 1 ml/well and the mixture is incubated for 15 minutes with constant shaking (Titer Plate Shaker, Lab-Line Instruments, Inc., Melrose Park, Ill.) at a humidified atmosphere of 5% CO2 at 37° C. Whole blood is cultured either undiluted or at a final dilution of 1:10 with RPMI 1640 (Gibco 31800+NaHCO3, Life Technologies, Rockville, Md. and Scios, Inc., Sunnyvale, Calif.). At the end of the incubation period, 10 μl of LPS (E. coli 01111:B4, Sigma Chemical Co., St. Louis, Mo.) is added to each well to a final concentration of 1 or 0.1 μg/ml for undiluted or 1:10 diluted whole blood, respectively. The incubation is continued for an additional 2 hours. The reaction is stopped by placing the microtiter plates in an ice bath, and plasma or cell-free supernates are collected by centrifugation at 3000 rpm for 10 minutes at 4° C. […]

COX-2 mRNA = assay: LPS-induced COX-2 mRNA; type: cell-based
MKK3 and MKK6 = assay: Activation of p38 MAPK by upstream kinases
[6] = system: MM cell lines (U266B, RPMI, ARH-77, and IM9); assay: MM cell proliferation; type: cell-based, human; conditions: 72-hour exposure; each of four MM cell lines (U266B, RPMI, ARH-77, IM9)
PGE2 = PGE2 levels in LPS-induced human whole blood; type: cell-based
Hsp27 = assay: Total Hsp27 levels in MM cells; type: cell-based, human; conditions: even after prolonged incubation
Protocol: as §2

purified COX-2 enzyme = target: T1, purified COX-2 enzyme (Homo sapiens, UniProt P35354); assay: Purified COX-2 enzyme activity; type: biochemical
T1 sequence (P35354 18-604): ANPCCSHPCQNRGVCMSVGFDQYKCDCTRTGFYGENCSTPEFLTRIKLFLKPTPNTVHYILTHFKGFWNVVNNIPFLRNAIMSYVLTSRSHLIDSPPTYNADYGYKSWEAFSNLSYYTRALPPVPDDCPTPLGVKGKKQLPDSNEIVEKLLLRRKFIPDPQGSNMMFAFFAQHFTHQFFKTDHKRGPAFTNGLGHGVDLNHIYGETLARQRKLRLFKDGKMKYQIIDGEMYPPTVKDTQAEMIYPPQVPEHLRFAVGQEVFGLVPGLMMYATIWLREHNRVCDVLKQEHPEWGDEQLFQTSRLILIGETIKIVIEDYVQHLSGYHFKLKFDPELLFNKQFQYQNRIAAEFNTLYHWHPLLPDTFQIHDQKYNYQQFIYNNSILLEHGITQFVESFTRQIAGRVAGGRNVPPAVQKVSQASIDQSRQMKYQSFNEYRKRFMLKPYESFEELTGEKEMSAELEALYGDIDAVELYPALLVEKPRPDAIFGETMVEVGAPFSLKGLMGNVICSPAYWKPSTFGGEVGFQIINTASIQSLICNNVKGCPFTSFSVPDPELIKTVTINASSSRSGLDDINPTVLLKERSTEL

MM cells = assay: MM cell viability and proliferation with SN-50 co-exposure; type: cell-based; conditions: co-exposure with SN-50
Excerpt: SN-50 is a cell-permeable specific inhibitor of NF-kappaB nuclear translocation and activity. Nuclear factor-kappaB has been reported to confer significant survival potential in a variety of tumors, including MM cells.

[7] = in combination with an apoptosis promoting agent

SMILES: COC(=O)C(=O)c1cn(C(=O)c2ccc(Cl)cc2)c2cc(OC)c(C(=O)N3CCC(Cc4ccccc4)CC3)cc12 [Compound 4]
VEGF secretion (VEGF): inhibited

activity of downstream substrate MAPKAPK-2 (MAPKAPK-2): suppresses | activity of the purified COX-2 enzyme (purified COX-2 enzyme): did not directly inhibit
SMILES: C[C@@H]1CN(Cc2ccc(F)cc2)[C@@H](C)CN1C(=O)c1cc2c(C(=O)C(=O)N(C)C)cn(C)c2cc1Cl [Compound 57]
MM cell growth (multiple myeloma; [7]): inhibited | MM-related cytokine product (multiple myeloma; [7]): reduced | MM cell growth (multiple myeloma; therapeutic amount, alone): inhibited | MM-related cytokine product (multiple myeloma; therapeutic amount, alone): reduced | phosphorylation of HSP-27 (HSP-27 [1]; MM cells): blocked phosphorylation of HSP-27 completely | Hsp27 phosphorylation (HSP-27 [1]; U266, IM9, RPMI8226, cell lysates or immunoprecipitation assays, 0.5 μM): inhibits | p38 MAPK activity (HSP-27 [1]; immunodetection of p38 MAPK kinase target HSP-27): fully suppressed | LPS-induced IL-1β release (IL-1β): dose-dependent reduction | IL-1 and TGFβ induction of IL-11 at the mRNA and protein levels (IL-11 [2]): blocked | IL-1 and TGFβ induction of IL-11 at the mRNA and protein levels (IL-11 [3]): blocked | phosphorylation of HSP-27 (HSP-27 [4]): blocked phosphorylation of HSP-27 completely | BMSC viability (BMSC): Neither p38α MAPK inhibition nor high concentrations of Compound 57 (tested up to 50-fold excess of active concentration) affected BMSC viability | tumor volume, histological assessment ([5]; at the end of dosing, versus vehicle): significant reduction | number of neoformed microvessels ([5]; histological assessment at the end of dosing): significant reduction | HSP27 expression in tumor cells ([5]; mouse, in vivo): significantly reduces | p38 expression in tumor cells ([5]; mouse, in vivo): significantly reduces | tumor volume ([5]; palpable tumors (~200 mm^3), 90 mg/kg/bid oral gavage, 21 days): significantly reduces | tumor volume ([5]; treatment initiated at pronounced tumor size (~800 mm^3)): significant reduction | LPS-induced TNF-α secretion (TNF-α): dose-dependent reduction | LPS-induced COX-2 mRNA (COX-2 mRNA): inhibited | direct activation of the p38 MAPK enzyme or activity of kinases upstream of p38 MAPK (MKK3 and MKK6): not the direct activation of the p38 MAPK enzyme or the activity of kinases upstream of p38 MAPK | reduction in proliferation [6]: about 20% | PGE2 levels (PGE2): reduced | total Hsp27 levels (Hsp27): does not affect | reduction of MM cell viability and proliferation caused by SN-50-induced NFκB inhibition (MM cells): enhances the reduction of MM cell viability and proliferation

Reference: US20060079461A1, “Treatment of multiple myeloma by inhibition of p38 MAP kinase” (Scios, Inc., priority 2003, published 2006)
